Assay results: article PMC6079455, “Discovery of Novel Caeridins from the Skin Secretion of the Australian White's Tree Frog, Litoria caerulea” (International Journal of Genomics, 2018)
Ends that are not written are not given here.

Tests used:
[1] = system: human microvascular endothelial cell line HMEC-1; assay: Membrane permeabilisation of HMEC-1 (LDH release); type: cell-based; settings: 24 h; for LDH release from HMEC-1: relative to lysis buffer
Protocol: The membrane permeabilisation of the human microvascular endothelial cell line, HMEC-1, was evaluated using the Pierce LDH Cytotoxicity Assay Kit (Thermo Fisher Scientific, San Francisco, CA, USA). HMEC-1 cells were cultured in MCDB-131 medium (Life Technology, Paisley, UK) with 10% FBS, 10 ng/ml epidermal growth factor (EGF) (Life Technology, Paisley, UK), 10 mM L-glutamine (Life Technology, Paisley, UK), and 1% penicillin-streptomycin (Sigma-Aldrich, St. Louise, MO, USA), at 37°C under 5% CO2. Cells were seeded in a 96-well plate at 5000 cells per well and cultured overnight to 80% confluency. Then, the cells were treated with different peptide solutions of gradient concentrations from 10^−7 M to 10^−4 M for 24 h at 37°C, 5% CO2, and H2O-treated cells were made as the spontaneous LDH release control. Lysis buffer was added to cells and incubated for 45 min at 37°C, 5% CO2, to produce the lysis buffer-treated cells which were referred to as maximum LDH release control. Then 50 μl of each sample supernatant was transferred to a 96-well flat-bottom plate in triplicate wells, to which 50 μl of reaction mixture was added, incubated, and protected from light at room temperature for 30 min. After addition of 50 μl Stop Solution to each sample well and removal of bubbles present in sample wells, the absorbance at 490 nm and 680 nm was measured. The absorbance values at 680 nm were subtracted from the absorbance values at 490 nm before calculation of the level of LDH release (cytotoxicity). The level of LDH release was calculated as (2) LDH release %=L−L0/L1−L0×100%, where L refers to sample-treated LDH activity, L0 to spontaneous (H2O-treated) LDH activity, and L1 to maximum (lysis buffer-treated) LDH activity.
Data analysis was performed using one-way analysis of variance followed by Dunnett's multiple comparison tests with maximum LDH release control in GraphPad Prism (Version 6.0; GraphPad Software Inc., San Diego, CA, USA).

C. albicans NCYC1467 = assay: Antimicrobial test (broth microdilution); type: cell-based, Candida albicans
Protocol: (§1) The antimicrobial activities were tested by the broth microdilution method and evaluated by the determination of MIC values against different tested microorganisms, the Gram-positive bacteria, S. aureus (NCTC 10788), E. faecalis (NCTC12697), and MRSA (NCTC 12493); the Gram-negative bacterium, E. coli (NCTC 10418); and the yeast, C. albicans (NCYC 1467). The microorganisms were cultured to their log phase in MHB and diluted to 5 × 10^5 CFU/ml then subsequently treated with peptide solutions of gradient concentrations. After incubation at 37°C overnight, the growth of microorganisms was detected at a wavelength of 550 nm using a Synergy HT plate reader (Biolise BioTek ELx808, Winooski, VT, USA). The MICs were determined as the lowest concentration of peptide where […].

S. aureus = assay: Membrane permeability on S. aureus (SYTOX Green); type: cell-based, Staphylococcus aureus; settings: 2 h, 37°C, 1 × 10^8 CFU/ml, relative to 70% isopropanol
Protocol: The cell membrane permeability of S. aureus was tested with SYTOX Green Nucleic Acid Stain (Life Technologies, Carlsbad, CA, USA). The log-phase S. aureus was pelleted and suspended in 5% TSB in 0.85% NaCl solution to achieve 1 × 10^8 CFU/ml cells which was then treated with peptide solutions at 37°C for 2 h. The maximum membrane-compromised S. aureus was produced by 70% isopropanol treatment. Subsequently, cells were mixed with 5 μM SYTOX Green stain and incubated in the dark for 10 min. The fluorescence was measured in a 37°C Synergy HT plate reader (Biolise BioTek ELx808, Winooski, VT, USA) at excitation and emission wavelengths of 480 nm and 528 nm, respectively. The membrane permeability was calculated as (1) Membrane permeability%=F−F0/F1−F0×100%, where F represents the processed fluorescence intensity with peptide treatments, F0 represents the processed fluorescence intensity of untreated S. aureus, and F1 represents the processed fluorescence intensity in the maximum membrane-compromised S. aureus (70% isopropanol-treated). The fluorescence intensities of background were subtracted prior to calculation.

S. aureus NCTC10788 = assay: Antimicrobial test (broth microdilution); type: cell-based, Staphylococcus aureus
Protocol: as §1

rat ileum smooth muscle = assay: Rat ileum smooth muscle test; settings: 10^−11 to 10^−6 M
Protocol: Female Wistar rats (250–300 g) were euthanized by CO2 asphyxiation followed by cervical dislocation under appropriate Home Office (UK) animal licenses. Full urinary bladder and ileum were carefully removed from the abdomen, then placed in cold Kreb's solution (118 mM NaCl, 4.7 mM KCl, 25 mM NaHCO3, 1.15 mM NaH2PO4, 2.5 mM CaCl2, 1.1 mM MgCl2, and 5.6 mM glucose), equilibrated with a carbogen mixture (95% O2, 5% CO2). The prepared smooth muscles linked with transducers were placed in 2 ml capacity organ baths with Kreb's solution flowing through at 2 ml/min and maintained at 37°C with constant bubbling of carbogen gas mixture (95% O2, […]) and equilibrated for 1 h prior to analysis. Then the viability of these smooth muscle preparations was tested by 60 mM KCl. Caeridins were tested at sequential molar concentrations in the range from 10^−6 M to 10^−11 M. Dose-response curves were depicted for each Caeridin on individual smooth muscle preparations (n = 5). Changes in tension of the smooth muscle preparations were detected by pressure transducers connected to a PowerLab System (ADInstruments Pty Ltd.). Data were recorded and calculated to obtain the means of responses and standard error of means (SEM). The dose-response curve of each Caeridin was established using best-fit algorithms through the data analysis package provided by GraphPad Prism (Version 6.0; GraphPad Software Inc., San Diego, CA, USA), and the comparative EC50 value for each peptide was depicted.

MRSA NCTC12493 = assay: Antimicrobial test (broth microdilution); type: cell-based, methicillin-resistant S. aureus
Protocol: as §1

E. faecalis NCTC12697 = assay: Antimicrobial test (broth microdilution); type: cell-based, Enterococcus faecalis
Protocol: as §1

[2] = MHB, 5 × 10^5 CFU/ml, 37°C overnight, 550 nm

## GLFDIVGKLLGGLGL-NH2 [Caeridin-a1]
[1]; 10 μM
  LDH release from HMEC-1: approximately 10%
[1]; 100 μM
  LDH release from HMEC-1: about 50%
[1]; 100 μM, LDH release
  cytotoxicity to HMEC-1 cells: significant cytotoxicity
C. albicans NCYC1467
  MFC: 64 µM
C. albicans NCYC1467; [2]
  MIC: 32 µM
S. aureus; peptide at its MBC
  membrane permeability of S. aureus at MBC: massively compromised
S. aureus; peptide at its MIC
  membrane permeability of S. aureus at MIC: remained intact
S. aureus NCTC10788
  MBC: 16 µM
S. aureus NCTC10788; [2]
  MIC: 8 µM
Rat ileum smooth muscle
  smooth muscle activity (rat ileum): did not show any smooth muscle activities
MRSA NCTC12493
  MBC: 32 µM
MRSA NCTC12493; [2]
  MIC: 16 µM
E. faecalis NCTC12697
  MBC: 64 µM
E. faecalis NCTC12697; [2]
  MIC: 32 µM
